We go through 25 molecules from US10874743B2, “IRAK degraders and uses thereof” (Kymera Therapeutics, Inc., priority 2017, dated 2020).

Experiment [1] concerns OCI-LY10 cells. Kind of experiment: OCI-LY-10 CTG cell viability assay (EC50). To be noted: Homo sapiens, 96 h, CellTiter-Glo cell viability, 4 days incubation, top concentration 10 μM, read-out: OCI-LY10 IRAK4 EC50. In kind it is cell-based. The protocol: A CTG cell viability assay using OCI-LY-10 cells was run to determine compound-mediated cell viability (EC50).
Compound-mediated viability effect on OCI-LY10 was quantitatively determined using the CellTiter-Glo® Luminescent Cell Viability Assay kit from Promega (Catalog number G7570) following manufacturer's recommended procedures. […] Compounds were then added to the assay plate with final top concentration of 10 μM and 1:3 dilution series with total of 9 doses. The final DMSO concentration was normalized to 0.2%. The assay plates were incubated at 37° C. for 4 days under 5% CO2. Then the assay plate was equilibrated at room temperature for 10 minutes. […] The data was then analyzed by software Prism 7.0 from GraphPad and the dose response curves were fit using a three-parameter logistic equation to calculate EC50.

The target of experiment [2] is T1, IRAK4 (Homo sapiens, UniProt Q9NWZ3).
T1 sequence (Q9NWZ3 1-460): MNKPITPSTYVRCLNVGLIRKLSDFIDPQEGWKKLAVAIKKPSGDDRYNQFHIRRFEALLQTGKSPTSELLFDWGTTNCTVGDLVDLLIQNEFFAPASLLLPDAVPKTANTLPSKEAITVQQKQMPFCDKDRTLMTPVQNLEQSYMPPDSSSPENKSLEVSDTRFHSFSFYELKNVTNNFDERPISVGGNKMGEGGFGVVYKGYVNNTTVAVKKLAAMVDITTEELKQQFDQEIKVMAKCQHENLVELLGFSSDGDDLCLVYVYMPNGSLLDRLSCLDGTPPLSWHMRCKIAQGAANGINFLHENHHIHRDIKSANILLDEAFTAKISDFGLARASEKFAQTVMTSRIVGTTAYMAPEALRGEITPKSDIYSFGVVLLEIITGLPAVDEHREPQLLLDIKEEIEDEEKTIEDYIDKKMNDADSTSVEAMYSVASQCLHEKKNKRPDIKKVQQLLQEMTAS
The experiment can be described thus: OCI-LY-10 MSD assay for IRAK4 DC50. Format: cell-based. On the set-up: endogenous in cells; host or cells: OCI-LY10. To be noted: OCI-LY10 cells, 4 hr incubation, concentration required to degrade 50% of protein. The procedure, abridged: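 IRAK4 level was quantified by MSD electrochemiluminescence (anti-IRAK4 capture antibody, rabbit anti-IRAK4 detection antibody) in RIPA lysates of OCI-Ly10 cells. Cells had been treated with compound for 4 hr (8-point, 3-fold serial dilution). Remaining protein versus concentration was fitted to a sigmoidal curve to give DC50.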

pEC50: −log10 of the molar value. Some results are limits rather than exact numbers.

As a reminder, the pEC50 is −log10 of the EC50, conventionally taken in molar units. By DC50 is commonly meant the midpoint of the concentration-degradation curve. Lower therefore signals a more potent degrader. On to `O=C1CCC(N2C[C@H](c3ccc(C#CCN4CCO[C@@H](CNCc5ccc(-n6cc(NC(=O)c7coc(-c8ccnc(NCC9CC9)c8)n7)c(C(F)F)n6)cc5)C4)cc3)OC2=O)C(=O)N1` (some centres unmarked) [I-585], for which the pEC50 in experiment [1] is over 7.30. Further, the DC50 in experiment [2] is under 50 nM. For `CN(Cc1ccc(-n2cc(NC(=O)c3coc(-c4ccnc(NCC5CC5)c4)n3)c(C(F)F)n2)cc1)C[C@@H]1CN(CCCc2ccc3c(c2)n(C)c(=O)n3C2CCC(=O)NC2=O)CCO1` (some centres unmarked) [I-599] the same measures were over 7.30 and 100 to 500 nM.

In the case of `CN[C@@H](C)C(=O)N[C@H](C(=O)N1CCC[C@H]1c1nc(C(=O)c2cccc(OCCOCCOCCOCCOCCNCc3ccc(-n4cc(NC(=O)c5coc(-c6ccnc(NCC7CC7)c6)n5)c(C(F)F)n4)cc3)c2)cs1)C1CCCCC1` [I-555], the pEC50 in experiment [1] was under 6.00. The molecule also had a DC50 in experiment [2] of 500 to 1000 nM. For `Cn1c(=O)n(C2CCC(=O)NC2=O)c2ccc(CCCN3CCO[C@H](CNCc4ccc(-n5cc(NC(=O)c6coc(-c7ccnc(NCC(F)(F)F)c7)n6)c(C(N)=O)n5)cc4)C3)cc21` (some centres unmarked) [I-572] the same measures were 6.30 to 7.00 and under 50 nM. For `CN(CC[C@H]1CN(CCCc2ccc3c(c2)n(C)c(=O)n3C2CCC(=O)NC2=O)CCO1)Cc1ccc(-n2cc(NC(=O)c3coc(-c4ccnc(NCC5CC5)c4)n3)c(C(F)F)n2)cc1` (some centres unmarked) [I-592] the same measures were over 7.30 and under 50 nM. For `CN(CCCOCCCc1cccc2c1oc(=O)n2C1CCC(=O)NC1=O)C(=O)c1ccc(-n2cc(NC(=O)c3coc(-c4ccnc(NCC(F)(F)F)c4)n3)c(C(N)=O)n2)cc1` (centres unmarked) [I-495] the same measures were 6.00 to 6.30 and under 50 nM.

On to `Cn1c(=O)n(C2CCC(=O)NC2=O)c2ccc(CNCCCCCNCc3ccc(-n4cc(NC(=O)c5coc(-c6ccnc(NCC7CC7)c6)n5)c(C(F)F)n4)cc3)cc21` (centres unmarked) [I-542], for which, in experiment [1], the negative-log EC50 (pEC50) was over 7.30. In experiment [2], the DC50 is under 50 nM. For `Cn1c(=O)n(C2CCC(=O)NC2=O)c2ccc(CCCOCCNCc3ccc(-n4cc(NC(=O)c5coc(-c6ccnc(NCC(F)(F)F)c6)n5)c(C(F)F)n4)cc3)cc21` (centres unmarked) [I-532] the same measures were 6.00 to 6.30 and under 50 nM. As for `CN(CCCCOCCCCc1ccc2c(c1)n(C)c(=O)n2C1CCC(=O)NC1=O)C(=O)c1ccc(-n2cc(NC(=O)c3coc(-c4ccnc(NCC5CC5)c4)n3)c(C(F)F)n2)cc1` (centres unmarked) [I-491], in experiment [1], the pEC50 was over 7.30. In addition, the DC50 in experiment [2] is 50 to 100 nM.

Consider `Cn1c(=O)n(C2CCC(=O)NC2=O)c2ccc(CCCOCCOCCNCc3ccc(-n4cc(NC(=O)c5coc(-c6ccnc(NCC7CC7)c6)n5)c(C(F)F)n4)cc3F)cc21` (centres unmarked) [I-539], for which the pEC50 in experiment [1] is over 7.30. In experiment [2], this molecule returned a DC50 of 500 to 1000 nM. For `O=C1CCC(N2C[C@H](c3ccc(C#CCCOCCCNCc4ccc(-n5cc(NC(=O)c6coc(-c7ccnc(NCC8CC8)c7)n6)c(C(F)F)n5)cc4)cc3)OC2=O)C(=O)N1` (some centres unmarked) [I-580] the same measures were over 7.30 and 50 to 100 nM. For `CN(CCOCCOCCOCCNc1cccc2c1C(=O)N(C1CCC(=O)NC1=O)C2=O)C(=O)c1nn(C)cc1NC(=O)c1coc(-c2ccnc(NCC(F)(F)F)c2)n1` (centres unmarked) [I-456] the same measures were under 6.00 and over 1000 nM. For `Cn1c(=O)n(C2CCC(=O)NC2=O)c2ccc(CCCN3CCO[C@@H](CNCc4ccc(-n5cc(NC(=O)c6coc(-c7ccnc(NCC(F)(F)F)c7)n6)c(C(F)F)n5)cc4)C3)cc21` (some centres unmarked) [I-614] the same measures were 6.30 to 7.00 and 50 to 100 nM. For the molecule `O=C1CCC(n2c(=O)oc3c(CCCN4CCO[C@@H](CNCc5ccc(-n6cc(NC(=O)c7coc(-c8ccnc(NCC9CC9)c8)n7)c(C(F)F)n6)cc5)C4)cccc32)C(=O)N1` (some centres unmarked) [I-589], the pEC50 in experiment [1] is over 7.30. This molecule also registered a DC50 in experiment [2] of under 50 nM. For `CN(C[C@@H]1CN(CCCc2ccc3c(c2)n(C)c(=O)n3C2CCC(=O)NC2=O)CCO1)C(=O)c1ccc(-n2cc(NC(=O)c3coc(-c4ccnc(NCC5CC5)c4)n3)c(C(F)F)n2)cc1` (some centres unmarked) [I-488] the same measures were over 7.30 and under 50 nM. For `Cn1ncc2nc(Nc3cnn(CCOCCOCCNc4cccc5c4C(=O)N(C4CCC(=O)NC4=O)C5=O)c3)nc(NC3CCC(N4CCOCC4)CC3)c21` (centres unmarked) [I-692] the same measures were under 6.00 and over 1000 nM. For `Cn1c(=O)n([C@@H]2CCC(=O)NC2=O)c2ccc(CCCCOCCCCNCc3ccc(-n4cc(NC(=O)c5coc(-c6ccnc(NCC7CC7)c6)n5)c(C(F)F)n4)cc3)cc21` (single isomer, unassigned) [I-700] the same measures were 7.00 to 7.30 and under 50 nM. `NC(=O)c1nn(-c2ccc(CNCCCOCCCc3ccc4c(c3)oc(=O)n4C3CCC(=O)NC3=O)cc2)cc1NC(=O)c1coc(-c2ccnc(NCC(F)(F)F)c2)n1` (centres unmarked) [I-567]: in experiment [1], the pEC50 is 6.00 to 6.30. The DC50 in experiment [2] was under 50 nM.

Consider `O=C1CCC(n2c(=O)oc3cc(CCCOCCOCCNCc4ccc(-n5cc(NC(=O)c6coc(-c7ccnc(NCC8CC8)c7)n6)c(C(F)F)n5)cc4)ccc32)C(=O)N1` (centres unmarked) [I-550], for which the pEC50 in experiment [1] was over 7.30. Further, the DC50 in experiment [2] was under 50 nM.

As for `CN[C@@H](C)C(=O)N[C@H](C(=O)N1Cc2cc(OCCOCCOCCOCCOCCOCCNC(=O)c3ccc(-n4cc(NC(=O)c5coc(-c6ccnc(NCC7CC7)c6)n5)c(C(F)F)n4)cc3)ccc2C[C@H]1C(=O)N[C@@H]1CCCc2ccccc21)C(C)(C)C` [I-520, 2-[2-(Cyclopropylmethylamino)-4-pyridyl]-N-[3-(difluoromethyl)-1-[4-[2-[2-[2-[2-[2-[2-[[(3S)-2-[(2S)-3,3-dimethyl-2-[[(2S)-2-(methylamino)propanoyl]amino]butanoyl]-3-[[(1R)-tetralin-1-yl]carbamoyl]-3,4-dihydro-1H-isoquinolin-7-yl]oxy]ethoxy]ethoxy]ethoxy]ethoxy]ethoxy]ethylcarbamoyl]phenyl]-pyrazol-4-yl]oxazole-4-carboxamide], the pEC50 in experiment [1] is under 6.00. In addition, the DC50 in experiment [2] fell in the range of 500 to 1000 nM. Consider `Cn1c(=O)n(C2CCC(=O)NC2=O)c2ccc(N3CCN(CCOCCNCc4ccc(-n5cc(NC(=O)c6coc(-c7ccnc(NCC8CC8)c7)n6)c(C(F)F)n5)cc4)CC3)cc21` (centres unmarked) [I-685], for which, in experiment [1], the pEC50 is over 7.30. The molecule also showed a DC50 in experiment [2] of under 50 nM. For `Cn1c(=O)n(C2CCC(=O)NC2=O)c2ccc(CNCCOCCNCc3ccc(-n4cc(NC(=O)c5coc(-c6ccnc(NCC7CC7)c6)n5)c(C(F)F)n4)cc3)cc21` (centres unmarked) [I-684, 2-[2-(cyclopropylmethylamino)-4-pyridyl]-N-[3-(difluoromethyl)-1-[4-[[2-[2-[[1-(2,6-dioxo-3-piperidyl)-3-methyl-2-oxo-benzimidazol-5-yl]methylamino]ethoxy]ethylamino]methyl]phenyl]pyrazol-4-yl]oxazole-4-carboxamide] the same measures were over 7.30 and under 50 nM.

With `Cn1cc(NC(=O)c2coc(-c3ccnc(NCC(F)(F)F)c3)n2)c(C(=O)NC2CCN(CCOCCOCCOCCOCCCc3cccc4c3n(C)c(=O)n4C3CCC(=O)NC3=O)CC2)n1` (centres unmarked) [I-457], the pEC50 in experiment [1] is under 6.00. Same read-out and setting: with `Cn1c(=O)n(C2CCC(=O)NC2=O)c2ccc(CCCN3CCO[C@@H](CNCc4ccc(-n5cc(NC(=O)c6cnn7ccc(N8CCNCC8)nc67)c(C(F)F)n5)cc4)C3)cc21` (some centres unmarked) [I-617] the figure was 6.00 to 6.30. On the same count and under the same terms, as for `Cn1cc(NC(=O)c2cnn3ccc(N4CCN(C(=O)COCCOCCOCCOCCCc5ccc6c(c5)n(C)c(=O)n6C5CCC(=O)NC5=O)CC4)nc23)c(C(F)F)n1` (centres unmarked) [I-466], the figure is under 6.00.
